Columns and labels:
Poliovirus 1 [1] = experiment: Antiviral activity against PV1 infected in […] BSC cells at 5 ug/6 mm disk; assay type: functional
[2] = Cytotoxicity against […] BSC cells at 5 ug /6 mm disk; assay type: cell-based
Poliovirus 1 [3] = experiment: Antiviral activity against PV1 infected in […] BSC cells at 20 ug/6 mm disk; assay type: functional
Human alphaherpesvirus 1 [4] = experiment: Antiviral activity against HSV1 infected in […] BSC cells at 20 ug/6 mm disk; assay type: functional
[5] = Cytotoxicity against […] BSC cells at 20 ug /6 mm disk; assay type: cell-based
Poliovirus 1 [6] = experiment: Antiviral activity against PV1 infected in […] BSC cells at 2 ug/6 mm disk; assay type: functional
[7] = Cytotoxicity against […] BSC cells at 2 ug /6 mm disk; assay type: cell-based
Human alphaherpesvirus 1 [8] = experiment: Antiviral activity against HSV1 infected in […] BSC cells at 2 ug/6 mm disk; assay type: functional

Structure (SMILES)	inhibition zone (IZ) (Poliovirus 1 [1]) [mm]	inhibition zone (IZ) [2] [mm]	inhibition zone (IZ) (Poliovirus 1 [3]) [mm]	inhibition zone (IZ) (Human alphaherpesvirus 1 [4]) [mm]	inhibition zone (IZ) [5] [mm]	inhibition zone (IZ) (Poliovirus 1 [6]) [mm]	inhibition zone (IZ) [7] [mm]	inhibition zone (IZ) (Human alphaherpesvirus 1 [8]) [mm]
C/C(=C\CCc1ccoc1)CC/C=C(\C)CCCC(C)CC(=O)O (stereo unspecified)	2	2	–	–	–	–	–	–
COC1=C(C)C(=O)O/C1=C\C(C)CCC/C(C)=C/CC/C(C)=C/CCC1(O)C(OC)OC(OC)C1O (mixture of isomers)	–	–	4	4	1	–	–	–
COC1=C(C)C(=O)O/C1=C\C(C)CCC/C(C)=C/CC/C(C)=C/CCC1=CC(O)OC1=O (mixture of isomers)	–	–	–	–	4	2	2	–
COC1=C(C)C(=O)O/C1=C\C(C)CCC/C(C)=C/CC/C(C)=C/CCC1=CC(=O)OC1O (mixture of isomers)	–	–	4	4	2	2	1	–
CC1=C(O)/C(=C/C(C)CCC/C(C)=C/CC/C(C)=C/CCc2ccoc2)OC1=O (stereo unspecified) [VARIABILIN]	–	–	–	–	–	4	1	4

— ChEMBL document CHEMBL1151132, “Autooxidation Studies on the Marine Sesterterpene Tetronic Acid, Variabilin” (J Nat Prod, 1989)
